In US20230346770A1 (priority 2020, published 2023):
Converted amounts (≈) assume the structure as drawn. Where two headings read alike, the source gives them in different places.

Columns and labels:
[1] = 8-week bedaquiline regimen in MDR-TB patients, Diacon et al. 2012; cited from earlier work
M. fortuitum = conditions: n=5; cited from earlier work
M. ulcerans = conditions: cited from earlier work
[2] = system: other mycobacterial species; conditions: generally, other mycobacterial species incl. M. avium, M. abscessus, M. fortuitum, M. marinum; cited from earlier work
M. bovis = conditions: n=1; cited from earlier work
[3] = updated model from the present study; clarithromycin coadministration
[4] = in vivo; cited from earlier work
[5] = human, in vivo
M. kansasii = conditions: n=1; cited from earlier work
clinical = conditions: human, in vivo
M. abscessus = conditions: cited from earlier work
[6] = human; cited from earlier work
M. smegmatis = conditions: n=7; cited from earlier work
[7] = system: M. avium/M. intracellulare (MAC); conditions: n=7; cited from earlier work
M. marinum = conditions: n=1; cited from earlier work
[8] = in vivo; cited from earlier work; remark: listed apart in the source
[9] = Phase 1 crossover drug-drug interaction study, plasma pharmacokinetics in healthy adults; conditions: for time of peak of mean plasma concentration / pre-dose mean plasma concentration: Treatment B; for time of peak of mean plasma concentration: Day 5, in combination with bedaquiline; for pre-dose mean plasma concentration: Day 5 morning
[10] = Treatment B Day 5: bedaquiline 100 mg + clarithromycin 500 mg every 12 hours, n=16

CNCC[C@@](O)(c1cccc2ccccc12)[C@H](c1ccccc1)c1cc2cc(Br)ccc2nc1OC [M2]
mean terminal elimination half-life [1]: 159 days

COc1nc2ccc(Br)cc2cc1[C@@H](c1ccccc1)[C@@](O)(CCN(C)C)c1cccc2ccccc12 [Bedaquiline, (1R,2S)-1-(6-bromo-2-methoxyquinolin-3-yl)-4-(dimethylamino)-2-naphthalen-1-yl-1-phenylbutan-2-ol]
Bedaquiline MIC Median (M. fortuitum): 10 ng/mL
Bedaquiline MIC range (M. fortuitum): 7 to 10 ng/mL
MIC (M. ulcerans; 1 isolate of M ulcerans): 500 ng/mL (≈ 0.9 µM)
Bedaquiline MIC Median (M. ulcerans; n=1): 500 ng/mL
MICs [2]: < 0.1 µg/mL
Bedaquiline MIC Median (M. bovis): 3 ng/mL
Effect CLR on CL/F, Estimate (RSE, %) [3]: −0.37 (11)
terminal elimination half-life [4]: 5.5 months
time within which Cmax was reached after drug administration [4]: 4 to 6 h
AUC72h higher in Period 2 compared with Period 1 [5]: 5-6%
AUC240h higher in Period 2 compared with Period 1 [5]: 8-18%
increase of AUC72h with clarithromycin co-administration [5]: 12%
increase of AUC240h (mean plasma exposure) with clarithromycin co-administration [5]: 14%
plasma concentration quantifiable until [5]: 240 hours post-dose
tmax (median) [5]: 3.48 h
Cmax (mean) ([5]; 100 mg): 1287 ng/mL
Bedaquiline MIC Median (M. kansasii): 3 ng/mL
Cmax (clinical; 100 mg, Cmax (mean)): 1390 ng/mL
AUC(0-t) (clinical; AUC72 h (mean)): 13900 ng·h/mL
AUC(0-t) (clinical; AUC240 h (mean)): 17600 ng·h/mL
Tmax (clinical; tmax (median)): 5 h
MIC (M. abscessus; 1 isolate of M. abscessus): 250 ng/mL (≈ 0.45 µM)
Bedaquiline MIC Median (M. abscessus; n=1): 250 ng/mL
Increase in CL for healthy volunteers or C202, Estimate [6]: 37.5%
Bedaquiline MIC Median (M. smegmatis): 7 ng/mL
Bedaquiline MIC range (M. smegmatis): 3 to 100 ng/mL
Bedaquiline MIC Median [7]: 10 ng/mL
Bedaquiline MIC range [7]: 7 to 10 ng/mL
Bedaquiline MIC Median (M. marinum): 3 ng/mL
improvement of bioavailability when administered with food [8]: approximately 2 fold

CC[C@H]1OC(=O)[C@H](C)[C@@H](O[C@H]2C[C@@](C)(OC)[C@@H](O)[C@H](C)O2)[C@H](C)[C@@H](O[C@@H]2O[C@H](C)C[C@H](N(C)C)[C@H]2O)[C@](C)(OC)C[C@@H](C)C(=O)[C@H](C)[C@@H](O)[C@]1(C)O [Clarithromycin, clarithromycin, reference compound]
time of peak of mean plasma concentration [9]: 3 hours post-dose
pre-dose mean plasma concentration [9]: 1,281 ng/mL
AUC(0-t) ([9]; human, plasma, oral, AUC12 h (mean), Treatment B Day 5: bedaquiline 100 mg + clarithromycin 500 mg every 12 hours, n=16): 22900 ng·h/mL
Cmax ([9]; human, plasma, oral, Cmax (mean), Treatment B Day 5: bedaquiline 100 mg + clarithromycin 500 mg every 12 hours, n=16): 2970 ng/mL
Tmax ([9]; human, plasma, oral, tmax (median), Treatment B Day 5: bedaquiline 100 mg + clarithromycin 500 mg every 12 hours, n=16): 3 h

CO[C@]1(C)C[C@@H](C)C(=O)[C@H](C)[C@@H](O)[C@](C)(O)[C@@H](C(C)O)OC(=O)[C@H](C)[C@@H](O[C@H]2C[C@@](C)(OC)[C@@H](O)[C@H](C)O2)[C@H](C)[C@H]1O[C@@H]1O[C@H](C)C[C@H](N(C)C)[C@H]1O (stereo partly drawn) [14-OH-Clarithromycin, 14-OH-clarithromycin]
AUC12 h (mean) [9, 10]: 10849 ng·h/mL
Cmax (mean) [9, 10]: 1,152 ng/mL
Cmin (mean) [9, 10]: 636 ng/mL
tmax (median) [9, 10]: 2.00 h
time of peak of mean plasma concentration [9]: 3 hours post-dose
pre-dose mean plasma concentration [9]: 797 ng/mL
